How the values were obtained:
[1] = biological target: T1, α2,3(N)-sialyltransferase ST3GALIII (Rattus norvegicus, UniProt Q02734); test: Sialyltransferase activity assay, ST3GALIII; assay type: biochemical; settings: α2,3-N-link; read-out: IC50 (μM) ST3GALIII
T1 construct: purchased Calbiochem
T1 sequence (Q02734 1-374): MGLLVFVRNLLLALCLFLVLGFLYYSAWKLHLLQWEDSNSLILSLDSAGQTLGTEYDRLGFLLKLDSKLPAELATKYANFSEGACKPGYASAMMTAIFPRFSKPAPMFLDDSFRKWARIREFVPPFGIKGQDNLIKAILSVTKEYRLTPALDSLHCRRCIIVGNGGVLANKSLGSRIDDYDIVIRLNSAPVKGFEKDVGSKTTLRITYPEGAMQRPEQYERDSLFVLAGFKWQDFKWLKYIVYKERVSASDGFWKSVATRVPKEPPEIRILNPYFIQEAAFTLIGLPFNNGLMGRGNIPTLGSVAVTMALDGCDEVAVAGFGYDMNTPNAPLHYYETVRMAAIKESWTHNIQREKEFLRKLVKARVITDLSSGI

MDA-MB-231 breast cancer = test: Nude mice model of human MDA-MB-231 breast cancer; assay type: in vivo
Procedure: BALB/c mice (4-5 weeks old) were subcutaneously injected with 1×10^6 MDA-MB-231 cells to the mammary fat pad on day 0. Tumors were allowed to grow in the mice until the size of the tumor reached 100 mm^3, and then the animals were randomly assigned to 3 groups (n=6-8 per group): tumor (vehicle) control, 10 mg/kg the present compound (e.g., FCW34 or FCW66) treatment group. The present compound was intraperitoneally (i.p.) injected to test animals every three days. The growth and metastasis of the tumors were observed by IVIS imaging system, and the metastasized tumor tissues were collected on day 60, and measured for the volume (V) using calipers and calculated by the formula V=(L×W^2)/2, where L is the length and W is the width of tumor.
The effects of the sialyltransferase inhibitor in tumor growth and metastasis were investigated in a nude mice model of human MDA-MB-231 breast cancer established in accordance with procedures set forth in the “Materials and Methods” section. The MDA-MB-231/Luc cells (5×10^6 cells) were orthotopically injected into the mammary fat pad of nude mice. Then the mice were given FCW34 and vehicle, respectively, on day 20, and the tumor volume were evaluated by bioluminescence every 3 days using IVIS image analysis.

MDA-MB-231 cells = test: Transwell migration assay, breast cancer cells; assay type: cell-based, human
Description: Migration assays were done using a transwell, in which a polycarbonate filter pre-coated with Matrigel (8-μm pores, Millicell; Millipore, Billerica, Mass.) was inserted therein. […] Cells that had migrated to the underside of the inserted filter were stained with hematoxylin solution. The cells in the upper side of the inserted membrane were rubbed with a cotton swab. The migrated cells on the underside were pictured in a 200× magnification field and quantified.

PANC-1 cells = test: In vitro transwell invasion analysis, PANC-1 cells; assay type: cell-based, human; settings: PANC-1 cells grown in fructose-containing medium, FIG. 4
Procedure: Migration assays were done using a transwell, in which a polycarbonate filter pre-coated with Matrigel (8-μm pores, Millicell; Millipore, Billerica, Mass.) was inserted therein. Cells were serum-starved for 24 h and then seeded (5×10^5 cells per upper chamber) and treated with or without the present compound(s) (concentrations as indicated), and the assays were run for 6 h. Cells that had migrated to the underside of the inserted filter were stained with hematoxylin solution. The cells in the upper side of the inserted membrane were rubbed with a cotton swab. The migrated cells on the underside were pictured in a 200× magnification field and quantified.
In this example, the ability of the FCW34 in suppressing the migration and/or invasion of pancreatic cancer cells was investigated using in vitro transwell analysis and in vivo mice model bearing pancreatic cancer.

[2] = biological target: T2, α2,6(N)-sialyltransferases ST6GALI (Homo sapiens, UniProt P15907); test: Sialyltransferase inhibition assay, ST6GALI (reverse-phase HPLC); assay type: biochemical
T2 construct: purchased RnDSystems.com (R&D Systems)
T2 sequence (P15907 1-406): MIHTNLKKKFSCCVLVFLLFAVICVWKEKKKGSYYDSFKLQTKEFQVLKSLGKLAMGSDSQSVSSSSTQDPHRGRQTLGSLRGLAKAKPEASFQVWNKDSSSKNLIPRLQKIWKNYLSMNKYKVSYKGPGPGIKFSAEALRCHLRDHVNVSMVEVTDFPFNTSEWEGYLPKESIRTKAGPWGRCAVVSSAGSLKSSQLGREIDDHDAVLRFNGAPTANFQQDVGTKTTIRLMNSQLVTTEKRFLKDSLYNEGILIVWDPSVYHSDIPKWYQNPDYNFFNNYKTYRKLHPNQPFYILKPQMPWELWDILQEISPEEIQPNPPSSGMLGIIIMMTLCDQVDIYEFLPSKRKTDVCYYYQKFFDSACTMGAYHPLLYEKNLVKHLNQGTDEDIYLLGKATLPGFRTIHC
Summary of the method: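 Human ST6GalI (1.4 mU) incubated 15 min at 37° C with 25 μM Galβ1-4GlcNAc, 1 mM CMP-Neu5Ac and inhibitor in 200 mM MES, 100 mM NaCl, 0.5 mM EDTA, 0.01% Triton X-100. Sialylated product quantified by reverse-phase HPLC; kinetics from nonlinear fitting of initial rates.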

Compound: C[C@H](CCC(=O)OCCOCCOCCN=[N+]=[N-])C1CC[C@H]2[C@@H]3CC[C@@H]4C[C@H](OC(=O)[C@H](CC(=O)O)Nc5ccc([N+](=O)[O-])c6nonc56)CC[C@]4(C)[C@H]3CC[C@]12C (stereo partly drawn) [Compound 3, (3S)-4-(((3R,5R,8R,9S,10S,13R,14S)-17-((R)-5-(2-(2-(2-azidoethoxy)ethoxy)ethoxy)-5-oxopentan-2-yl)-10,13-dimethylhexadecahydro-1H-cyclopenta[a]phenanthren-3-yl)oxy)-3-((7-nitrobenzo[c][1,2,5]oxadiazol-4-yl)amino)-4-oxobutanoic acid]
- IC50 [1]: 1.74 ± 0.09 µM
- growth of the cancer cells (tumors harvested on day 60) (MDA-MB-231 breast cancer; 10 mg/Kg, FIG. 2B): suppresses the growth
- level of bioluminescence (tumor growth, IVIS) (MDA-MB-231 breast cancer; 10 mg/Kg/mouse/3 days, FIG. 2A): remained at a relatively low level
- toxic effects (biochemistry tests of blood and body weight assessment) (MDA-MB-231 breast cancer; treated mice, data not shown): limited toxic effects
- migration of MDA-MD-231 cells (MDA-MB-231 cells; 20 μM, FIG. 1): inhibited the migration
- IC50 (MDA-MB-231 cells; Homo sapiens, MDA-MB-231, 16 h, read-out: IC50 on migration): 10.64 ± 0.09 µM
- invasion ability (PANC-1 cells): significantly inhibited
- selectivity ratio ST3GALI/ST6GALI [2]: >139
- IC50 ([2]; α2,6-N-link, read-out: IC50 (μM) ST6GALI): 3.59 ± 0.38 µM
